Measured values reported in patent publication US8741871B2, “Trehalose compound, method for producing same, and pharmaceutical product containing the compound” (priority 2008, dated 2014).

Key:
[1] = test system: Salmonella typhmurium TA98; experiment: Mutagenicity test (Ames test); conditions: TA98, in the presence or absence of S9 mix; FIG. 11
[2] = test system: IL-6, TNF-α, IFN-γ in mouse plasma; experiment: Measurement of IL-6, TNF-α and IFN-γ released into peripheral blood of test compound administered mouse; conditions: 100 μg/mouse intravenous, two hours later; for IL-6-releasing activity (mouse plasma IL-6 concentration) compared with TDCM: FIG. 6; for IFN-γ-releasing activity (mouse plasma IFN-γ concentration) compared with TDCM: FIG. 7
[3] = test system: Welch bacillus toxin (recombinant α-toxin); conditions: in vivo, ip
[4] = test system: Welch bacillus (Type A; NTCT8237); assay type: in vivo; conditions: 100 μg/mouse i.p. three hours before Welch bacillus 2.4×10^7 cells/mouse i.p.
Procedure: As test compounds, 1 mg each of the compound synthesized by the method described in Production Example α-1 and TDCM were weighed. Emulsion solutions of the test compounds (1 mg/ml) were prepared in the same manner as described above.
[…] of Brain Heart Infusion (BHI) (Difco) powders were dissolved in 200 ml of distilled water. 40 ml of the obtained solution (hereinafter this solution is referred to as a “BHI medium”) was withdrawn with a measuring pipette, and it was then added to a 200-ml flask, followed by performing a high-pressure steam sterilization (121° C., 20 minutes). In addition, 5 ml of the BHI medium was added to two screw-top test tubes, and they were then subjected to a high-pressure steam sterilization. Moreover, a glass tube-equipped rubber plug (with a cotton plug) and a glass tube were also subjected to a high-pressure steam sterilization. In a clean bench, an appropriate amount of bacteria for preservation, which had grown on a cooked meat medium, was collected with a sterilized Pasteur pipette, and it was then inoculated on the BHI medium in the aforementioned sterilized screw-top test tube. Subsequently, it was incubated at 37° C. overnight.
In a clean bench, bacteria that had grown in the screw-top test tube (wherein the inside of the […] in which bacteria had grown became clouded, and gas was generated) was transferred into a 200-ml Erlenmeyer flask, which contained 40 ml of BHI medium. A glass tube was inserted into the medium, so as to carry out nitrogen substitution for 10 minutes. Subsequently, the glass tube-equipped rubber plug (with a cotton plug) was equipped in the Erlenmeyer flask (since Welch bacillus generates gas, it is necessary to make an air vent), and incubation was then carried out at 37° C. for 4 to 5 hours. Thereafter, the cultured Welch bacillus was transferred into a centrifuge tube, it was then centrifuged (9000 rpm, 15 minutes), and the supernatant was then removed. 20 ml of sterilized normal saline solution was added to the precipitate, so that the bacteria were suspended therein. The suspension was centrifuged (9000 rpm, 15 minutes), and the supernatant was then removed.
Mice (ICR, 6-week-old) were divided into three groups, and the following test was then carried out.
An emulsion solution containing the test compound, an emulsion solution containing TDCM, or an emulsion solution alone, which was to be used as a control, was intraperitoneally administered in an amount of 100 μg/mouse to a group of four mice (100 μl/mouse, in the case of the emulsion solution alone). Three hours later, Welch bacillus (2.4×10^7 cells/mouse) was intraperitoneally administered to the mice. Thereafter, the condition of the mice was observed.

THP-1 cells = experiment: Analysis of cytotoxicity to THP-1 cells using trypan blue; assay type: cell-based, human; conditions: treated for 2 hours and for 24 hours; FIG. 10
Procedure: The cultured THP-1 cells were transferred into a 50-ml centrifuge tube in a clean bench. The cells were then centrifuged at 1,000 rpm for 5 minutes at 20° C., and the supernatant was then removed. […] 10 μl of this cell suspension was added to a sterile Eppendorf tube, to which 990 μl of serum-free RPMI 1640 medium had previously been added, so that the solution was 100-fold diluted. The number of cells in 10 μl of the 100-fold diluted solution was counted with a blood cell counter, and the cell suspension was diluted with serum-free RPMI 1640 medium to a cell density of 1×10^7 cells/ml.
A test compound (Example 9)/DMSO solution, or DMSO was added to 100 μl of RPMI medium to a concentration of 200 μM. Thereafter, ultrasonic wave was applied to the mixture for 5 seconds. It is to be noted that a test compound, 6-O-(2-decyldecanoyl)-α-glucose (hereinafter referred to as a “control compound B”), and TDCM were used to prepare positive controls in the same manner as described above. In addition, a negative control was prepared by adding no test compounds (vehicle). […] Subsequently, 20 μl of 0.3% trypan blue/PBS (−) was added to the reaction solution so as to suspend the reaction solution therein, and thereafter, the survival rate of the cells was immediately analyzed using a cell number measuring apparatus (CYRORECON).

With `Nc1ccc2cc3ccccc3cc2c1` [2-aminoanthracene, reference compound] as the molecule, how does the “mutagenicity (Ames test, number of His colonies)” value [1] read?
Its value is “positive”.

`CCCCCCCCCCCCCC(CCCCCCCCCCCCC)CC(=O)OCC1O[C@H](O[C@H]2OC(COC(=O)CC(CCCCCCCCCCCCC)CCCCCCCCCCCCC)[C@@H](O)C(O)C2O)C(O)C(O)[C@@H]1O` (stereo partly drawn) [Example 13, 6,6′-bis-O-(3-tridecylhexadecanoyl)-α,α′-trehalose] was tested. Which “IL-6-releasing activity (mouse plasma IL-6 concentration) compared with TDCM” value [2] did it give?
The value was “approximately a half of”.

What about the “IFN-γ-releasing activity (mouse plasma IFN-γ concentration) compared with TDCM” value [2] of the same molecule?
The value was “approximately a half of”.

What does the source list for `CCCCCCCCCCCCCCC(CCCCCCCCCCCCCC)CC(=O)OCC1O[C@H](O[C@H]2OC(COC(=O)CC(CCCCCCCCCCCCCC)CCCCCCCCCCCCCC)[C@@H](O)C(O)C2O)C(O)C(O)[C@@H]1O` (stereo partly drawn) [Example 14, 6,6′-bis-O-(3-tetradecylheptadecanoyl)-α,α′-trehalose]?
IL-6-releasing activity (mouse plasma IL-6 concentration) compared with TDCM [2]: approximately equivalent to; IFN-γ-releasing activity (mouse plasma IFN-γ concentration) compared with TDCM [2]: approximately equivalent to

Which results are given for `CCCCCCCCCCCCCCC[C@@H](O)[C@@H](CCCCCCCCCCCCCC)C(=O)OC[C@H]1O[C@H](O[C@H]2O[C@H](COC(=O)[C@H](CCCCCCCCCCCCCC)[C@H](O)CCCCCCCCCCCCCCC)[C@@H](O)[C@H](O)[C@H]2O)[C@H](O)[C@@H](O)[C@@H]1O` [TDCM, trehalose dicorynomycolate, reference compound]?
Number of surviving mice/number of treated mice, 2 hours later [3]: 4/4; Number of surviving mice/number of treated mice, 6 hours later [3]: 4/4; Number of surviving mice/number of treated mice, 12 hours later [3]: 4/4; Number of surviving mice/number of treated mice, 24 hours later [3]: 2/4; Number of surviving mice/number of treated mice, 48 hours later [3]: 2/4; Number of surviving mice/number of treated mice, 2 hours later ([4]; 2 hours later): 4/4; Number of surviving mice/number of treated mice, 6 hours later ([4]; 6 hours later): 4/4; Number of surviving mice/number of treated mice, 12 hours later ([4]; 12 hours later): 4/4; Number of surviving mice/number of treated mice, 24 hours later ([4]; 24 hours later): 4/4; Number of surviving mice/number of treated mice, 48 hours later ([4]; 48 hours later): 4/4

With `CCCCCCCCCCC(CCCCCCCC)C(=O)OC[C@H]1O[C@H](O)[C@H](O)[C@@H](O)[C@@H]1O` (stereo partly drawn) [control compound B, 6-O-(2-decyldecanoyl)-α-glucose, reference compound] as the molecule, how does the “cytotoxicity to THP-1 cells (survival rate, trypan blue staining)” value (THP-1 cells) read?
The value was “cytotoxicity was observed”.
